These results are taken from patent US6825230B2, “Spiro and dispiro 1,2,4-trixolane antimalarials” (Medicines for Malaria Venture MMV, priority 2002, dated 2004).

Structures are written as SMILES. ≈ marks a conversion by molar mass, not a printed value.

Assay [1] has as its system Schistosoma mansoni 21-day-old schistosomules. The experiment in a line: Effect on 21-day-old schistosomules in infected mice. The format is in vivo. To be noted: single 200 mg/kg per os, 21-day-old schistosomules; for % reduction of schistosomule growth at day 21 after per os application of 200 mg/kg, FWR (%): female worm reduction rate; for % reduction of schistosomule growth at day 21 after per os application of 200 mg/kg, TWR (%): total worm reduction rate. How it is done:
Mice were infected with 100 Schistosoma mansoni cercariae on day 21 post-treatment. Each group was treated per os with trioxolanes at a single dose of 200 mg/kg. […] All groups were killed 4 weeks after treatment and the liver and intestine were removed and separated. The liver and intestine were compressed and alive male and female worms could be seen and counted. The effect of the compounds was evaluated by mean total and female worm burden.

Assay [2] deals with ANKA strain of P. berghei. The experiment in a line: Single dose STI in vivo screen in infected mice. The arrangement: species or system Plasmodium berghei. Conditions: for Survival (days) 10 mg/kg SSV po: single 10 mg/kg po in SSV, untreated 6-7 days.
Assay [3] relates to P. berghei ANKA strain. The experiment in a line: Divided 3x3 mg/kg and 3x1 mg/kg po doses in infected mice. The format is in vivo, Plasmodium berghei. To be noted: 3 mg/kg po (SSV) on days 1, 2, 3 post-infection. On the procedure:
Moro NMRI male mice (Fu Albino specific pathogen free) weighing 18±2 g were infected intravenously (i.v.) with 2×10^7 P. berghei ANKA strain-infected erythrocytes from donor mice on day 0 of the experiment. From donor mice with circa 30% parasitemia, heparinized blood was taken and diluted in physiological saline to 10^8 parasitized erythrocytes per ml. An aliquot (0.2 ml) of this suspension was injected i.v. into experimental and control groups of mice. […] Throughout the experiments, mice were kept in groups of three or five animals in Makrolon type II cages in an air-conditioned animal room at 22 to 23° C.
They were administered per os (p.o.) in a total volume of 0.01 ml per gram of mouse. The activity of the compound was determined by a variety of methods outlined in subsequent sections. Survival time was also recorded, and survival to day 30 post-infection was considered to be a cure.
The second experiment consists of administration of divided 3×3 mg/kg and 3×1 mg/kg po doses administered on days 1, 2, and 3 post-infection. On day 4 post-infection, blood smears of all animals were prepared and stained with Giemsa. […] Compounds were administered orally in the SSV vehicle.

The subject of assay [4] is chloroquine-resistant K1 strain of P. falciparum. The experiment in a line: In vitro antimalarial semiautomated microdilution assay ([3H]-hypoxanthine incorporation), K1 strain. In kind it is cell-based, Plasmodium falciparum. Conditions: Plasmodium falciparum; chloroquine-resistant K1 strain, 72 h incubation; read-out: IC50 (ng/ml) K1. Summed up:
(§1)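 Logit regression analysis yields the fifty percent inhibitory concentration. Compounds are tested by semiautomated microdilution on intraerythrocytic parasites drawn from asynchronous stock cultures, measuring [3H]-hypoxanthine incorporation.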
In general terms: Broth dilution looks for growth in wells or tubes with falling amounts of substance.

For assay [5], the system named is chloroquine-sensitive NF54 strain of P. falciparum. The experiment in a line: In vitro antimalarial semiautomated microdilution assay ([3H]-hypoxanthine incorporation), NF54 strain. In kind it is cell-based, Plasmodium falciparum. To be noted: Plasmodium falciparum; chloroquine-sensitive NF54 strain, 72 h incubation; read-out: IC50 (ng/ml) NF54. A digest of the protocol:
as §1

For the compound `CS(=O)(=O)N1CCC2(CC1)OOC1(O2)C2CC3CC(C2)CC1C3` (centres unmarked) [OZ56], in assay [1], the “% reduction of schistosomule growth at day 21 after per os application of 200 mg/kg, FWR (%)” value worked out at 66% and the “% reduction of schistosomule growth at day 21 after per os application of 200 mg/kg, TWR (%)” value came to 69%.
For `CC1(O)CCC2(CC1)OOC1(O2)C2CC3CC(C2)CC1C3` (centres unmarked) [OZ90], in that order: 79% and 81%.
Take `NC1CCN(C(=O)C[C@H]2CC[C@]3(CC2)OO[C@]2(O3)C3CC4CC(C3)CC2C4)CC1` [OZ339]: the “Survival (days) 3 mg/kg SSV po” value in assay [2] (single 3 mg/kg po in SSV) is reported as 9.2 days. For the same compound, the “Survival (days) 10 mg/kg SSV po” value in assay [2] came out at 10.2 days. Moreover, the “Cured infected mice at the 3×3 mg/kg dose” value in assay [3] is 3/5.
As for `c1ccc(CON=C2CCC3(CC2)OOC2(O3)C3CC4CC(C3)CC2C4)cc1` (centres unmarked) [OZ19], in assay [1], the “% reduction of schistosomule growth at day 21 after per os application of 200 mg/kg, FWR (%)” value amounted to 74% and the “% reduction of schistosomule growth at day 21 after per os application of 200 mg/kg, TWR (%)” value stood at 77%.
For `CC1(C)CC(C)(C)CC2(C1)OOC1(O2)C2CC3CC(C2)CC1C3` (centres unmarked) [OZ26], in that order: 40% and 37%.
For `C1CC2(CCO1)OOC1(O2)C2CC3CC(C2)CC1C3` (centres unmarked) [OZ22], in that order: 76% and 75%.
For `CC(C)(C)OC(=O)N1CCC2(CC1)OOC1(O2)C2CC3CC(C2)CC1C3` (centres unmarked) [OZ35], in that order: 63% and 73%.
As to `ON=C1CCC2(CC1)OOC1(O2)C2CC3CC(C2)CC1C3` (centres unmarked) [OZ16], in assay [1], the “% reduction of schistosomule growth at day 21 after per os application of 200 mg/kg, FWR (%)” value is 77% and the “% reduction of schistosomule growth at day 21 after per os application of 200 mg/kg, TWR (%)” value is given as 78%.
For `CC1(C)CCC2(CC1)OOC1(O2)C2CC3CC(C2)CC1C3` (centres unmarked) [OZ33], in that order: 14% and 28%.
As to `O=C(NC[C@H]1CC[C@]2(CC1)OO[C@]1(O2)C2CC3CC(C2)CC1C3)N1CCNCC1` [OZ329], the “Survival (days) 3 mg/kg SSV po” value in assay [2] (single 3 mg/kg po in SSV) stood at 9.2 days. For the same compound, the “Activity (%) 3 mg/kg SSV po” value in assay [2] (single 3 mg/kg po in SSV, percent reduction in parasitemia on day 3) is recorded as 99.50%. Besides, the “Survival (days) 10 mg/kg SSV po” value in assay [2] was 11.2 days. Also, the “Activity (%) 10 mg/kg SSV po” value in assay [2] (single 10 mg/kg po in standard suspending vehicle (SSV) on day 1 post-infection, percent reduction in parasitemia on day 3) is recorded as 99.97%. In addition, the “Cured infected mice at the 3×3 mg/kg dose” value in assay [3] is given as 2/5. For the same compound, the figures for the IC50 in assay [4] and in assay [5] were 0.43 ng/mL (≈ 1.06 nM) and 0.68 ng/mL (≈ 1.68 nM), respectively.
Consider `O=C(NN=C1CCC2(CC1)OOC1(O2)C2CC3CC(C2)CC1C3)Nc1ccccc1` (centres unmarked) [OZ30], for which, in assay [1], the “% reduction of schistosomule growth at day 21 after per os application of 200 mg/kg, FWR (%)” value turned out to be 12% and the “% reduction of schistosomule growth at day 21 after per os application of 200 mg/kg, TWR (%)” value is given as 16%.
For `CC(C)(C)ON=C1CCC2(CC1)OOC1(O2)C2CC3CC(C2)CC1C3` (centres unmarked) [OZ28], in that order: 87% and 81%.
For the compound `CON=C1CC2CC3(CC2C1)OOC1(O3)C2CC3CC(C2)CC1C3` (centres unmarked) [OZ37], in assay [1], the “% reduction of schistosomule growth at day 21 after per os application of 200 mg/kg, FWR (%)” value was found to be 53% and the “% reduction of schistosomule growth at day 21 after per os application of 200 mg/kg, TWR (%)” value is on record as 63%.
